{"source": "patent US20250163122A1", "about": "“COMPOSITIONS AND METHODS FOR TREATING AIRWAY MUCUS DYSFUNCTION” (BOARD OF REGENTS, THE UNIVERSITY OF TEXAS SYSTEM, priority 2022, published 2025)", "tested_on": "neuronal SNAREs and Syt1", "experiment": "Single vesicle content mixing assay, neuronal SNAREs and Syt1", "format": "biochemical", "conditions": "10 μM peptide, raw count; for Ca2+ triggered fusion events: 500 μM Ca2+", "source_text": "For single vesicle content mixing assay, the lipid composition of the SV, SG, VAMP2, or VAMP8 vesicles was phosphatidylcholine (PC) (48%), phosphatidylethanolamine (PE) (20%), phosphatidylserine (PS) (12%), and cholesterol (20%); for both the neuronal and airway PM vesicles the lipid composition was Brain Total Lipid Extract supplemented 3.5 mol % PIP2, and 0.1 mol % biotinylated phosphatidylethanolamine (PE).\nThe reconstitution method for neuronal PM and SV vesicles was described in detail previously (see Lai et al., 2017; Kyoung et al., 2011; and Lai et al., 2014). The same methods were used for airway PM, SG, VAMP2, and VAMP8 vesicles. Dried lipid films were dissolved in 110 mM OG buffer containing purified proteins at protein-to-lipid ratios of 1:200 for VAMP2 and Stx1A for SV and neuronal PM vesicles, respectively (or 1:200 for VAMP8 and Stx3 for SG and airway PM vesicles, respectively), and 1:800 for Syt1 for SV vesicles (or 1:1200 for Syt2 for SG vesicles).\nA 3-5 fold excess of SNAP-25A or SNAP-23 (with respect to Stx1A or Stx3) and 3.5 mol % PIP2 were added to the protein-lipid mixture for neuronal or airway PM vesicles. […] For the preparation of SV, SG, VAMP2, or VAMP8 vesicles for single vesicle content mixing assay, 50 mM sulforhodamine B (Thermo Fisher Scientific) was added to the protein-lipid mixture. The vesicles subsequently formed during size exclusion chromatography using a Sepharose CL-4B column, packed under near constant pressure by gravity with a peristaltic pump (GE Healthcare) in a 5.5 ml column with a ˜5 ml bed volume that was equilibrated with buffer V (20 mM HEPES, pH 7.4, 90 mM NaCl) supplemented with 20 μM EGTA and 0.1% 2-mercaptoethanol. The eluent was subjected to dialysis into 21 of detergent-free buffer V supplemented with 20 μM EGTA, 0.1% 2-mercaptoethanol, 5 g of Bio-beads SM2 (Bio-Rad) and 0.8 g/L Chelex 100 resin (Bio-Rad). After 4 hours, the buffer was exchanged with 21 of fresh buffer V supplemented with 20 μM EGTA, 0.1% 2-mercaptoethanol and Bio-beads, and the dialysis continued for another 12 h (overnight). […] For ensemble lipid mixing assay, the reconstitution method is the same as that for the single vesicle content mixing assay, except that 50 mM sulforhodamine B was omitted for all the steps.\nSingle vesicle content mixing experiments. All single vesicle fusion and single molecule experiments were performed on a prism-type total internal reflection fluorescence (TIRF) microscope using 532 nm (green) laser (CrystaLaser) excitation. Two observation channels were created by a 640 nm single-edge dichroic beamsplitter (FF640-FDi01-25x36, Shemrock): one channel was used for the fluorescence emission intensity of the content dyes and the other channel for that of the Cy5 dye that are part of the injected Ca^2+-solution. The two channels were recorded on two adjacent rectangular areas (45×90 m^2) of a charge-coupled device (CCD) camera (iXon+DV 897E, Andor Technology). The imaging data were recorded with the smCamera software developed by Taekjip Ha, Johns Hopkins University, Baltimore.\nFlow chambers were assembled by creating a “sandwich” consisting of a quartz slide and a glass coverslip that were both coated with polyethylene glycol (PEG) molecules consisting 0.1% (w/v) biotinylated-PEG except when stated otherwise, and using double-sided tape to create up to five flow-chambers.\nThe single vesicle content mixing assay described in Lai et al. (2014) was used to monitor vesicle-vesicle association, Ca^2+-independent, and Ca^2+-triggered fusion. The surface of the quartz slides was passivated by coating the surface with polyethylene glycol (PEG) molecules which alleviated non-specific binding of vesicles. The same protocol and quality controls (surface coverage and non-specific binding) were used as described previously (Kyoung et al., 2011; Kyoung et al., 2012) except that PEG-SVA (Laysan Bio) instead of mPEG-SCM (Laysan Bio) was used since it has a longer half-life. […]", "note": "Where a SMILES comes first, the peptide text is derived from it. Bridges are numbered along the chain shown (N, C = ends). [ ]: non-standard residue; d: D form. S5 = C=CCCC[C@](C)(N)C(=O)O"}
{"compound": "CC[C@H](C)[C@H](NC(=O)[C@]1(C)CCCC=CCCC[C@](C)(NC(=O)[C@H](CCC(=O)O)NC(=O)[C@H](CCC(=O)O)NC(C)=O)C(=O)N[C@@H](CCCCN)C(=O)N[C@@H](CC(=O)O)C(=O)N[C@@H](C)C(=O)N1)C(=O)N[C@@H](CCCNC(=N)N)C(=O)N[C@@]1(C)CCCC=CCCC[C@@](C)(C(=O)N[C@@H](CC(=O)O)C(=O)N[C@@H](CCC(=O)O)C(=O)N[C@@H](CCC(N)=O)C(=O)N[C@@H](CS)C(N)=O)NC(=O)[C@H](CCSC)NC(=O)[C@H](C(C)C)NC(=O)[C@H](CC(C)C)NC1=O", "note": "[SP9, Ac-EE(S5)KDA(S5)IR(S5)LVM(S5)DEQC-amide] (Ac-EE[S5]KDA[S5]IR[S5]LVM[S5]DEQC-NH2; staple 3-7, 10-14)", "values": [{"measurement": "Ca2+ triggered fusion events", "result": 272}, {"measurement": "Ca2+ independent fusion events", "result": 165}]}
{"compound": "Ac-SKD(S5)GIR(S5)LV(S5)LDE(S5)GEQL-amide (Ac-SKD[S5]GIR[S5]LV[S5]LDE[S5]GEQL-NH2; staple 11-15, 4-8; SMILES CC[C@H](C)[C@@H]1NC(=O)CNC(=O)[C@@](C)(NC(=O)[C@H](CC(=O)O)NC(=O)[C@H](CCCCN)NC(=O)[C@H](CO)NC(C)=O)CCCC=CCCC[C@@](C)(C(=O)N[C@@H](CC(C)C)C(=O)N[C@H](C(=O)N[C@@]2(C)CCCC=CCCC[C@@](C)(C(=O)NCC(=O)N[C@@H](CCC(=O)O)C(=O)N[C@@H](CCC(N)=O)C(=O)N[C@@H](CC(C)C)C(N)=O)NC(=O)[C@H](CCC(=O)O)NC(=O)[C@H](CC(=O)O)NC(=O)[C@H](CC(C)C)NC2=O)C(C)C)NC(=O)[C@H](CCCNC(=N)N)NC1=O) [SP10]", "values": [{"measurement": "Ca2+ triggered fusion events", "result": 495}, {"measurement": "Ca2+ independent fusion events", "result": 263}]}
{"compound": "Ac-SKD(S5)GIR(S5)LVMLDE(S5)GEQ(S5)DR-amide (Ac-SKD[S5]GIR[S5]LVMLDE[S5]GEQ[S5]DR-NH2; staple 15-19, 4-8; SMILES CC[C@H](C)[C@@H]1NC(=O)CNC(=O)[C@@](C)(NC(=O)[C@H](CC(=O)O)NC(=O)[C@H](CCCCN)NC(=O)[C@H](CO)NC(C)=O)CCCC=CCCC[C@@](C)(C(=O)N[C@@H](CC(C)C)C(=O)N[C@H](C(=O)N[C@@H](CCSC)C(=O)N[C@@H](CC(C)C)C(=O)N[C@@H](CC(=O)O)C(=O)N[C@@H](CCC(=O)O)C(=O)N[C@@]2(C)CCCC=CCCC[C@@](C)(C(=O)N[C@@H](CC(=O)O)C(=O)N[C@@H](CCCNC(=N)N)C(N)=O)NC(=O)[C@H](CCC(N)=O)NC(=O)[C@H](CCC(=O)O)NC(=O)CNC2=O)C(C)C)NC(=O)[C@H](CCCNC(=N)N)NC1=O) [SP1]", "values": [{"measurement": "Ca2+ triggered fusion events", "result": 210}, {"measurement": "Ca2+ independent fusion events", "result": 235}]}
{"compound": "Ac-SKDA(S5)IRT(S5)VM(S5)DEQ(S5)EQL-amide (Ac-SKDA[S5]IRT[S5]VM[S5]DEQ[S5]EQL-NH2; staple 12-16, 5-9; SMILES CC[C@H](C)[C@@H]1NC(=O)[C@@](C)(NC(=O)[C@H](C)NC(=O)[C@H](CC(=O)O)NC(=O)[C@H](CCCCN)NC(=O)[C@H](CO)NC(C)=O)CCCC=CCCC[C@@](C)(C(=O)N[C@H](C(=O)N[C@@H](CCSC)C(=O)N[C@@]2(C)CCCC=CCCC[C@@](C)(C(=O)N[C@@H](CCC(=O)O)C(=O)N[C@@H](CCC(N)=O)C(=O)N[C@@H](CC(C)C)C(N)=O)NC(=O)[C@H](CCC(N)=O)NC(=O)[C@H](CCC(=O)O)NC(=O)[C@H](CC(=O)O)NC2=O)C(C)C)NC(=O)[C@H]([C@@H](C)O)NC(=O)[C@H](CCCNC(=N)N)NC1=O) [SP4]", "values": [{"measurement": "Ca2+ triggered fusion events", "result": 210}, {"measurement": "Ca2+ independent fusion events", "result": 261}]}
{"compound": "EESKDAGIRTLVMLDEQGEQLD [Peptide P0, non-stapled SNAP-25A fragment used as a control, reference compound]", "values": [{"measurement": "Ca2+ triggered fusion events", "result": 591}, {"measurement": "Ca2+ independent fusion events", "result": 493}]}
